“Also recorded” adds a separate entry of the source.
Tests used:
[1] = system: PDE5/CyaB1-chimera; assay: adenylate cyclase activity of PDE5/CyaB1-chimera (conversion of [α-32P]-ATP to cAMP); assay type: biochemical, human; details: in the presence of cGMP; FIG. 6
Experimental: The adenylate cyclase activity of the PDE5/CyaB1-chimera is measured with and without the test substance. […] The incubation time should be between 1 and 120 min, the incubation temperature between 20 and 45° C., the Mg^2+-cofactor concentration between 1 and 20 mM (corresponding amounts of Mn^2+ may also be used as a cofactor) and the ATP concentration between 0.5 μM and 5 mM. An increase in the conversion with the substance compared to without the substance indicates a GAF-agonistic effect. If conversion is inhibited by adding the substance, this indicates a GAF-antagonistic effect of the substance. A GAF antagonism can also be measured via blockage of activation of PDE5/CyaB1-chimera by the native GAF ligand cGMP. In addition, the conversion at rising or fixed cGMP concentration is measured with and without the substance. If the conversion rates with the substance are below those without the substance, this indicates GAF antagonism of the substance. […]
The protein samples and the cocktail are measured in 1.5 mL reaction containers on ice, the reaction with ATP is started, and incubation is carried for 10 minutes at 37° C.
Each test mixture is carried in duplicate. […] With a test mixture without substance and cGMP, the basal enzyme activity is determined. […]
The inhibition or activation of the enzyme by the substance is calculated as % basal value according to the following formula: […]

[2] = biological target: PDE5 (Homo sapiens, UniProt O76074); details: cited from earlier work

SMILES | PDE5-antagonistic effect via binding to the GAF domain of PDE5 [1] | increase of the activity of PDE5 via cGMP binding to the GAF tandem [2]
CCCc1nn(C)c2c(=O)[nH]c(-c3cc(S(=O)(=O)N4CCN(C)CC4)ccc3OCC)nc12 [Sildenafil] | None of the measured PDE5 inhibitors shows a PDE5-antagonistic effect; also recorded: None of the measured PDE5 inhibitors showed a PDE5-antagonistic action | 
Nc1nc2c(ncn2[C@@H]2O[C@@H]3COP(=O)(O)O[C@H]3[C@H]2O)c(=O)[nH]1 [cGMP] |  | tenfold

Source: patent US20090087871A1, “Method for Identifying PDE5-Modulators” (Atlanta Pharma AG, priority 2004, published 2009)
